Data reported in US11988734B2, “Method and application for measuring the intracellular water transmembrane efflux rate, and measurement method and system for magnetic resonance imaging biomarker of glioma” (ZHEJIANG UNIVERSITY, priority 2022, dated 2024).
“And” between values parts separate entries of the source, which are not always exact repeats. Equal values may be shown once. “Also recorded” adds a separate entry of the source.

Legend:
[1] = test system: U87MG cell line; assay: Water exchange DCE-MRI measurement of kio in U87MG cell line with AQP4 inhibition; type: cell-based; settings: Phase I (adaptation period), 6.4 μM TGN020, n=6
Description: In order to obtain the cell samples for MRI, U87MG (0.5˜1×10^5) or C6 (1˜2×10^6) cell lines were first washed with DPBS, disassociated by adding 1 mL of 0.25% Trypsin-EDTA solution to 60 mm dish and incubating for 0.5 to 1.0 min, and then resuspended with 2 mL PBS (or PBS supplemented with 5 mM Gadoteridol). After centrifuging the cell sample with relative centrifugal force of 150 g at 4° C. for 5 min, the sample was resuspended in a custom MR compatible glass sample tube (diameter 5 mm×length 20 mm) with 250˜300 μL PBS (or PBS+5 mM Gadoteridol). We then centrifuged the MR tubes at 300 g at 4° C. for 2 min before carrying out MRI. […]
Water exchange DCE-MRI was performed with an inversion-recovery prepared turbo-spin-echo (IR-TSE) sequence and an extracellular Gd-based contrast agent, Gadoteridol (Prohance™ Bracco Diagnostics, Inc., Princeton, NJ). […] At [CA]=5 mM, IR-TSE were measured with 13 IR delays (10 ms, 30 ms, 50 ms, 70 ms, 90 ms, 150 ms, 200 ms, 400 ms, 600 ms, 800 ms, 1 s, 5 s, 5 s) with repetition time TR varying together (TR=IR delay+5 s) and single repetition on each IR delay. […]
where R1,sm and R1,lar are the apparently smaller and larger R1, respectively, and psm, is the apparent fraction of MR signals showing R1,sm. […] For each condition (e.g., C6 at TMZ 0, 3, and 7 day), at least three samples were measured with IR-TSE at [CA]=0 mM as the baseline data. […]

[2] = target: T1, AQP4 (Rattus norvegicus, UniProt P47863); assay: Pharmacological inhibition of AQP4 in subcutaneous rat glioma model (C6), in vivo water exchange DCE-MRI
T1 construct: C6 cell line was subcutaneously implanted into the right leg of Sprague Dawley (SD) rats to establish a glioma animal model; from tissue; host or cells: Subcutaneous C6 glioma tumour in Sprague Dawley rats (in vivo)
T1 sequence (P47863 whole entry): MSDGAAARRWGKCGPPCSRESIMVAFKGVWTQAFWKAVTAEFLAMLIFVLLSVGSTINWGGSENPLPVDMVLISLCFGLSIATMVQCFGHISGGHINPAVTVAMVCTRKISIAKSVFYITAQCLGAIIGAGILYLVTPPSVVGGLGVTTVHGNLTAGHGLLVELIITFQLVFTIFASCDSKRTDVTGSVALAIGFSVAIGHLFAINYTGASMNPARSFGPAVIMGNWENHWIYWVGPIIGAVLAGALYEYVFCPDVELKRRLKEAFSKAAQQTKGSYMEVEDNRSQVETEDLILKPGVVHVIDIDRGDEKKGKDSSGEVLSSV
Description: All experimental protocols for animal studies were approved by the Animal Experimentation Committee of Zhejiang University. Adult (7˜8-week-old) male Sprague Dawley (SD) rats were obtained from the Laboratory Animal Center of Zhejiang University. During glioma cell introduction, rats were anesthetized with a mixture of 2% (v/v) isoflurane in air (R500IE, RWD Life Science Co., Ltd,), and then 100 μl PBS containing 5×10^6 C6 cells and 1% antibiotics (P/S) were slowly injected under the skin at the right leg. Seven to nine days after tumour implementation, the animals were taken for 7 T MRI test and the tumour was quickly removed after and fixed for IHC after MRI.
Here TGN020 was used to inhibit AQP4 in rat glioma model. For TGN020 group, each animal was treated with TGN020 (3 mg/kg, 4 ml/kg body weight) in the tail vein 15 minutes before water exchange DCE-MRI. In order to increase the solubility, before intravenous injection, TGN020 was repeatedly ultrasound and vortex at 37° C. to promote dissolution and dispersion in saline (0.9% NaCl). One day before TGN020 treatment, the same animal was treated with normal saline (4 ml/kg), and then water exchange DCE-MRI data collection was performed. In the control group, animals were treated with the same volume of normal saline on the first day and the second day. Here, the small volume infusion needs to be flushed after infusion to ensure the safety and treatment effect of rats.
In vivo water exchange DCE-MRI is achieved through clinical use of Gd-based CA (dimethylamine gadolinate, Guangzhou, China). In order to better estimate kio, the invention uses the method of two injections of CA, which improves the accuracy of kio estimation by 10 times compared with the traditional method of single injection of contrast agent. In addition, the steady-state multi-gradient echo (MGE) sequence is used to overcome the potential T2* artifacts caused by contrast agents. […] Finally, the fitting error of SS model is carefully analyzed to remove kio with large fitting error.

[3] = test system: C6 cells; assay: Water exchange DCE-MRI measurement of intracellular water efflux rate constant kio in C6 cells; type: cell-based; settings: for kio: 50 μM TMZ, control 10.9±0.7; for decrease of kio vs control: TMZ
Description: (§1) C6 cells were treated with TMZ (50 μM) and treated with 50 μM TMZ dissolved in 0.1% DMSO […] or 0.1% DMSO in complete culture medium. The magnetic resonance parameters kio and physiological information (cell morphology, AQP4 expression, cell activity and cell migration distance) were obtained on the third and seventh days of TMZ (50 μM) treatment.
In order to obtain the cell samples for MRI, U87MG (0.5˜1×10^5) or C6 (1˜2×10^6) cell lines were first washed with DPBS, disassociated by adding 1 mL of 0.25% Trypsin-EDTA solution to 60 mm dish and incubating for 0.5 to 1.0 min, and then resuspended with 2 mL PBS (or PBS supplemented with 5 mM Gadoteridol). After centrifuging the cell sample with relative centrifugal force of 150 g at 4° C. for 5 min, the sample was resuspended in a custom MR compatible glass sample tube (diameter 5 mm×length 20 mm) with 250˜300 μL PBS (or PBS+5 mM Gadoteridol). We then centrifuged the MR tubes at 300 g at 4° C. for 2 min before carrying out MRI. For AQP4 inhibition experiments, cells were pre-cultured with 6.4 μM TGN020 (Axon, CAS 51987-99-6) dissolved in PBS for 15 mins or 1 mM ouabain (Sigma, CAS 11018-89-6) for 15 mins, respectively; the PBS in the above steps was replaced with PBS+inhibitor.
The 0.5 T desktop MRI measurement system for cell culture in vitro (Pure Devices GmbH, Germany) includes: the MRI system installed on the anti-vibration platform and the autonomous nuclear magnetic tube containing live cell precipitation from the incubator, 5% CO2+95% O2 and PBS supernatant to ensure high survival rate, and the temperature monitoring optical fiber is installed. All MRI measurements were performed at room temperature (23.5+/−1° C.).
Water exchange DCE-MRI was performed with an inversion-recovery prepared turbo-spin-echo (IR-TSE) sequence and an extracellular Gd-based contrast agent, Gadoteridol (Prohance™ Bracco Diagnostics, Inc., Princeton, NJ). The following scan parameters were used in water exchange DCE-MRI: echo time (TE) 3 ms, turbo factor 16, FOV 12.8×12.8 mm^2, matrix size 32×32. Water exchange DCE-MRI was performed with two CA concentrations, 0 and 5 mM. At [CA]=5 mM, IR-TSE were measured with 13 IR delays (10 ms, 30 ms, 50 ms, 70 ms, 90 ms, 150 ms, 200 ms, 400 ms, 600 ms, 800 ms, 1 s, 5 s, 5 s) with repetition time TR varying together (TR=IR delay+5 s) and single repetition on each IR delay. At [CA]=0 mM, the longest IR delays were extended to 10 s with TR extended simultaneously (TR=IR delay+10 s) to guarantee full recovery of the longitudinal magnetization in each TR. The scan time for a single acquisition at [CA]=0 mM and 5 mM is 10 min and 5.5 min, respectively. Two acquisitions on [CA]=5 mM were acquired and averaged.
IR-TSE signal (M) at each IR delay was taken as the average signal of the cell pellet ROI. Then the signal was subtracted and normalized by the equilibrium magnetization (M0, taken as M with the longest IR delay). We define M as the normalized signal for future SS model analysis: M=(M−M0)/M0 (1)
A two-site-exchange (2SX) SS model was used here with details as described previously ^6. Briefly, the MR signal is considered as the sum of signals of two water sites—intra- and extracellular water, each site is assumed to have a similar longitude recovery rate R1, with pi and po as the mole fraction of water molecules in the intra- and extracellular space, respectively, and pi+po=1. Then the normalized IR-TSE signal M can be described with a biexponential function, M=psmexp(−tR1,sm)+(1−psm)exp(−tR1,lar) (2)
where R1,sm and R1,lar are the apparently smaller and larger R1, respectively, and psm, is the apparent fraction of MR signals showing R1,sm. The three parameters, R1,sm, R1,lar and psm, are determined by […] physical parameters including pi, the intracellular water efflux rate constant (kio), and the R1 of intracellular water (R1i), and the CA-dependent extracellular water R1 (R1o). […]

[4] = test system: AQP4; assay: AQP4 expression (immunofluorescence, fluorescence intensity rfu) in C6 cell line during TMZ treatment; type: cell-based; settings: C6 cells, 50 μM TMZ
Description: as §1
After the MRI tests, the cell line sample was immediately fixed by 4% paraformaldehyde (PFA) at room temperature for 20 min, then stored in 0.5% PFA (4° C.). For immunofluorescence (IF) testing, protocols following: samples were (1) blocked with 10% goat serum (Beyotime, CO265) for one hour at room temperature; (2) incubated with primary antibody overnight at 4° C. and the secondary antibody at room temperature for 1 h; (3) stained with DAPI (4′,6-diamidino-2-phenylindole, Sigma-Aldrich, 1:1000) at room temperature for 5 min; and (4) washed three times with PBS. […] Data were collected from two fluorescence channels: one in which DAPI was characterized with excitation/emission wavelengths 375 nm/435 to 485 nm and the other with either […] (excitation/emission 470 nm/514 to 567 nm) or green (excitation/emission 525 nm/565 to 650 nm) channels. Fluorescence images were taken from either a Fluorescence Inversion Microscope System (cellSensV1.13, Olympus, Japan) or a confocal laser scanning microscope (fv1200, Olympus, Japan).

[5] = test system: C6 cells; assay: Slow cycling cell (SCC) fraction by OG cell tracer in C6 cells; type: cell-based; settings: before TMZ 6.0 (±0.4)%
Excerpt: The present invention uses the method of cell tracer to distinguish FCC and SCC. The OG (Oregon Green 488 Carboxylic Acid Diacetate, Succinimidyl Ester) and CTV (CellTrace™ Violet reagent, ThermoFisher scientific, Invitrogen C34557) were used to distinguish FCCs (low OG or CTV intensity) and SCCs (high OG or CTV intensity, e.g., the CTV intensity>10^4) in C6 cell lines and human glioma primary cell culture, respectively. Populations of FCCs and SCCs were identified and isolated in cell cultures based on their capacity to retain OG or CTV. Briefly, the cells were first suspended in PBS containing 25 μM OG and incubated in the dark at 37° C. for 10 min. After incubation, cell samples were washed in DMEM to remove residual dye and then returned to the culturing medium for three days until imaging. Before fluorescence imaging, samples were fixed in 4% PFA for 30 min and then stained with DAPI. The fraction of SCCs was defined as the fraction of OG positive cells in the DAPI positive cells. For primary human glioma primary cell cultures, the cells were stained with 5 μM CTV (the same methods as OG) for three days. Then, the cells fluorescence intensity statistics and counts were measured by a Fluorescence Activating Cell Sorter System (FACS) (LSRFortessa X-20, BD, USA).

average kio of the whole tumor ([2]; TGN020 3 mg/kg tail vein 15 min before DCE-MRI, n=9, saline 6.3±0.6, 3 mg/kg)	decrease of average kio of the whole tumor ([2]; TGN020 3 mg/kg vs saline in same animal, n=9, p=0.0246) [%]	average K^trans of the whole tumor ([2]; TGN020 3 mg/kg, saline 0.060±0.015) [min⁻¹]	SMILES	effect of AQP4 inhibition on kio [1]	effect of AQP4 inhibition on kio ([3]; C6 cells on 7th day of TMZ treatment, 6.4 μM TGN020)	decrease of AQP4 expression level, fluorescence intensity (rfu) ([4]; seventh day of treatment) [%]	decrease of AQP4 expression level, fluorescence intensity (rfu) ([4]; third day of treatment) [%]	proportion of SCC (OG+) ([5]; seventh day of TMZ treatment)	proportion of SCC (OG+) ([5]; third day of TMZ treatment)	kio ([3]; C6 cells, seventh day of treatment, n=7) [s⁻¹]	kio ([3]; C6 cells, third day of treatment, n=6) [s⁻¹]	decrease of kio (absolute) ([3]; C6 cells, 7th day of TMZ treatment vs control) [s⁻¹]	decrease of kio vs control ([3]; C6 cells, seventh day) [%]	decrease of kio vs control ([3]; C6 cells, third day) [%]
5 ± 0.7 s⁻¹ and 3.5 ± 0.7 s⁻¹	43	0.045 ± 0.024	O=C(Nc1nncs1)c1cccnc1 [TGN020]	will not lead to a significant decrease in kio; also recorded: will not lead to further reduction of kio	could not further reduce kio; also recorded: did not lead to further reduction of kio									
			Cn1nnc2c(C(N)=O)ncn2c1=O [TMZ, temozolomide]			85.9	42.5	28.9 (±0.3) %	16.0 (±0.1) %	5.8 ± 0.2	6.7 ± 0.8	4.9	45.5	37.3
